According to patent US5129937A, “Pyridyloxypyrimidine derivatives, preparation process thereof, and herbicidal compositions containing the same as active ingredients” (Mitsui Toatsu Chemicals Incorporated, priority 1989, dated 1992):

Columns and labels:
Assay type in all cases: in vivo
[1] = system: Johnsongrass; assay: Upland Soil Application Test; details: 30 g ai/a; soil application before emergence, wettable powder; observed 30 days later
Method: (§1) Resin-made 1/2500-are pots were filled with the soil of an upland field. After they were fertilized, soybean, corn and cotton were seeded and 2-3 cm soil covering was applied. Seeds of redroot pigweed, morningglory (Ipomoea purpurea), common lambsquarters, barnyardgrass, green foxtail, large crabgrass, foxtail meadow and johnsongrass had been uniformly mixed with the soil. They were allowed to germinate in a green house. One day later (before emergence of weeds), a wettable powder prepared from a predetermined amount of each test compound in a similar manner to the method described in Formulation Example 1 was diluted with water and then sprayed evenly at an application rate equal to 10 l per are onto the surface of the soil by means of a pressure-operated ULV (ultra low volume) sprayer. Influence to the crops and weeds were observed 30 days later. The results are shown in Table 3, in which the degree of damages of each test plant and the degree of injury to each crop were determined by comparing the air-dried weights of the test plant and crop with those of the corresponding plant and crop in untreated pots and are shown in accordance with the following standard: […]

[2] = system: Foxtail (Setaria viridis); assay: Upland Soil Application Test; details: 30 g ai/a; soil application before emergence, wettable powder; observed 30 days later
Method: as §1

[3] = system: Crabgrass (Digitaria adsendens); assay: Upland Soil Application Test; details: 30 g ai/a; soil application before emergence, wettable powder; observed 30 days later
Method: as §1

[4] = system: Foxtail meadow; assay: Upland Soil Application Test; details: 30 g ai/a; soil application before emergence, wettable powder; observed 30 days later
Method: as §1

[5] = system: Redroot Pigweed; assay: Upland Soil Application Test; details: 30 g ai/a; soil application before emergence, wettable powder; observed 30 days later
Method: as §1

[6] = system: Barnyardgrass (Echinochloa crus-galli); assay: Upland Soil Application Test; details: 30 g ai/a; soil application before emergence, wettable powder; observed 30 days later
Method: as §1

[7] = system: Common lambsquarters; assay: Upland Soil Application Test; details: 30 g ai/a; soil application before emergence, wettable powder; observed 30 days later
Method: as §1

[8] = system: Bulrush (Scirpus juncoides); assay: Submerged Soil Treatment Test (Growth Stage Treatment); details: 30 g ai/a, growth stage treatment (barnyardgrass two-leaf stage), granule, observed 30 days later
Method: (§2) 1/5000-are Wagner pots were filled with soil. Seeds or tubers of barnyardgrass, bulrush and Sagittaria pygmaea were seeded or planted under submerged condition. Two pairs of rice seedlings (2-3 leaf stage), which had been reared in advance, were transplanted to each pot and were allowed to grow in a green house. Each pair consisted of two rice seedlings. When the barnyardgrass grew to the two-leaf stage, each pot was treated with a granule which had been prepared by processing a predetermined amount of the test composition in accordance with a similar method to the method described in Formulation Example 9. The state of emergence of weeds and the state of injury of rice were observed 30 days later. In the table, the degrees of damages of the test plants and the degrees of injury of the rice are shown in a similar manner to Example 2.

[9] = system: Arrowhead sp. (Sagittaria pygmaea); assay: as above; details: 30 g ai/a, growth stage treatment (barnyardgrass two-leaf stage), granule, observed 30 days later
Method: as §2

[10] = system: Barnyardgrass (Echinochloa crus-galli); assay: as above; details: 30 g ai/a, growth stage treatment (barnyardgrass two-leaf stage), granule, observed 30 days later
Method: as §2

[11] = system: Bulrush (Scirpus juncoides); assay: Submerged Soil Treatment Test (Pre-Emergence Treatment); details: 30 g ai/a, granule, observed 30 days later
Method: as §2, with “allowed to germinate in a” for “allowed to grow in a”, “rice seedlings. On day later (before emergence of weeds), each pot” for “rice seedlings. When the barnyardgrass grew to the two-leaf stage, each pot”, “injury of rice are” for “injury of the rice are”

[12] = system: Arrowhead sp. (Sagittaria pygmaea); assay: as above; details: 30 g ai/a, granule, observed 30 days later
Method: as §2, with “allowed to germinate in a” for “allowed to grow in a”, “rice seedlings. On day later (before emergence of weeds), each pot” for “rice seedlings. When the barnyardgrass grew to the two-leaf stage, each pot”, “injury of rice are” for “injury of the rice are”

[13] = system: Barnyardgrass (Echinochloa crus-galli); assay: as above; details: 30 g ai/a, granule, observed 30 days later
Method: as §2, with “allowed to germinate in a” for “allowed to grow in a”, “rice seedlings. On day later (before emergence of weeds), each pot” for “rice seedlings. When the barnyardgrass grew to the two-leaf stage, each pot”, “injury of rice are” for “injury of the rice are”

[14] = system: Johnsongrass; assay: Upland Foliar Application Test; details: 30 g ai/a; foliar application at 2-3 leaf stage, emulsion; observed on the 30th day
Excerpt: (§3) Resin-made 1/10000-are pots were filled with the soil of an upland field. Redroot pigweed, morningglory (Ipomoea pupurea), common lambsquarters, foxtail meadow, johnsongrass, barnyardgrass, green foxtail, large crabgrass, soybean, corn and cotton were separately seeded and were allowed to germinate in a green house. When each plant grew to the stage of 2-3 leaves, an emulsion formulated from a predetermined amount of each test compound in a similar manner to the method described in Formulation Example 11 was diluted with water and then sprayed at a predetermined application rate by means of a pressure-operated ULV (ultra low volume) sprayer. The application rate was controlled at 5 l per are. Influence to the crops and weeds were observed on the 30th day after the spray of the herbicides. The results are shown in Table 4 in which the degree of damages of each test plant and the degree of injury to each crop are shown in a similar manner to Test 2.

[15] = system: Foxtail (Setaria viridis); assay: Upland Foliar Application Test; details: 30 g ai/a; foliar application at 2-3 leaf stage, emulsion; observed on the 30th day
Excerpt: as §3

[16] = system: Crabgrass (Digitaria adsendens); assay: Upland Foliar Application Test; details: 30 g ai/a; foliar application at 2-3 leaf stage, emulsion; observed on the 30th day
Excerpt: as §3

[17] = system: Foxtail meadow; assay: Upland Foliar Application Test; details: 30 g ai/a; foliar application at 2-3 leaf stage, emulsion; observed on the 30th day
Excerpt: as §3

[18] = system: Redroot Pigweed; assay: Upland Foliar Application Test; details: 30 g ai/a; foliar application at 2-3 leaf stage, emulsion; observed on the 30th day
Excerpt: as §3

[19] = system: Barnyardgrass (Echinochloa crus-galli); assay: Upland Foliar Application Test; details: 30 g ai/a; foliar application at 2-3 leaf stage, emulsion; observed on the 30th day
Excerpt: as §3

[20] = system: Common lambsquarters; assay: Upland Foliar Application Test; details: 30 g ai/a; foliar application at 2-3 leaf stage, emulsion; observed on the 30th day
Excerpt: as §3

[21] = system: Rice (Oryza sativa); assay: Submerged Soil Treatment Test (Pre-Emergence Treatment), crop injury; details: 30 g ai/a, granule, transplanted rice, observed 30 days later
Method: as §2, with “allowed to germinate in a” for “allowed to grow in a”, “rice seedlings. On day later (before emergence of weeds), each pot” for “rice seedlings. When the barnyardgrass grew to the two-leaf stage, each pot”, “injury of rice are” for “injury of the rice are”

[22] = system: Corn (Zea maize); assay: Upland Soil Application Test, crop injury; details: 30 g ai/a; soil application before emergence, wettable powder; observed 30 days later
Method: as §1

[23] = system: Soybean (Glycine max); assay: Upland Soil Application Test, crop injury; details: 30 g ai/a; soil application before emergence, wettable powder; observed 30 days later
Method: as §1

[24] = system: Cotton (Gossypium indicum); assay: Upland Soil Application Test, crop injury; details: 30 g ai/a; soil application before emergence, wettable powder; observed 30 days later
Method: as §1

[25] = system: Rice (Oryza sativa); assay: Submerged Soil Treatment Test (Growth Stage Treatment), crop injury; details: 30 g ai/a, growth stage treatment (barnyardgrass two-leaf stage), granule, transplanted rice, observed 30 days later
Method: as §2

Row | Compound | Herbicidal effects Johnsongrass [1] | Herbicidal effects Foxtail (Setaria viridis) [2] | Herbicidal effects Crabgrass (Digitaria adsendens) [3] | Herbicidal effects Foxtail meadow [4] | Herbicidal effects Redroot Pigweed [5] | Herbicidal effects Barnyardgrass (Echinochloa crus-galli) [6] | Herbicidal effects Common lambquarters [7] | Herbicidal effects Bulrush (Scirpus juncoides) [8] | Herbicidal effects Arrowhead sp. (Sagittaria pygmaea) [9] | Herbicidal effects Barnyardgrass (Echinochloa crus-galli) [10] | Herbicidal effects Bulrush (Scirpus juncoides) [11] | Herbicidal effects Arrowhead sp. (Sagittaria pygmaea) [12] | Herbicidal effects Barnyardgrass (Echinochloa crus-galli) [13] | Herbicidal effects Johnsongrass [14] | Herbicidal effects Foxtail (Setaria viridis) [15] | Herbicidal effects Crabgrass (Digitaria adsendens) [16] | Herbicidal effects Foxtail meadow [17] | Herbicidal effects Redroot Pigweed [18] | Herbicidal effects Barnyardgrass (Echinochloa crus-galli) [19] | Herbicidal effects Common lambquarters [20] | also measured
1 | COc1cc(OC)nc(Oc2cccnc2C(OC)OC)n1 [Compound No. 2, 3-(4.6-dimethoxy-2-pyrimidinyloxy)-2-pyridinecarboxaldehyde dimethylacetal] | 5 (0-5 (Death)) | 5 (0-5 (Death)) | 5 (0-5 (Death)) | 5 (0-5 (Death)) | 4 (6-10 (Severe damages)) | 4 (6-10 (Severe damages)) | 5 (0-5 (Death)) | 4 (6-10 (Severe damages)) | 4 (6-10 (Severe damages)) | 4 (6-10 (Severe damages)) | 5 (0-5 (Death)) | 5 (0-5 (Death)) | 5 (0-5 (Death)) | 5 (0-5 (Death)) | 4 (6-10 (Severe damages)) | 4 (6-10 (Severe damages)) | 4 (6-10 (Severe damages)) | 5 (0-5 (Death)) | 4 (6-10 (Severe damages)) | 4 (6-10 (Severe damages)) | Crop injury Rice (Oryza sativa) [21]: 0 (91-100 (No damages)); Crop injury Corn (Zea maize) [22]: 0 (91-100 (No damages)); Crop injury Soybean (Glycine max) [23]: 0 (91-100 (No damages)); Crop injury Cotton (Gossypium indicum) [24]: 0 (91-100 (No damages)); Crop injury Rice (Oryza sativa) [25]: 0 (91-100 (No damages))
2 | COc1cc(OC)nc(Oc2cccnc2C(OC)OC(C)C)n1 (stereo not shown) [Compound No. 5, 3-(4.6-dimethoxy-2-pyrimidinyloxy)-2-pyridinecarboxaldehyde isopropylmethylacetal] | 5 (0-5 (Death)) | 5 (0-5 (Death)) | 4 (6-10 (Severe damages)) | 5 (0-5 (Death)) | 5 (0-5 (Death)) | 4 (6-10 (Severe damages)) | 5 (0-5 (Death)) | 5 (0-5 (Death)) | 5 (0-5 (Death)) | 5 (0-5 (Death)) | 5 (0-5 (Death)) | 5 (0-5 (Death)) | 5 (0-5 (Death)) | 5 (0-5 (Death)) | 5 (0-5 (Death)) | 4 (6-10 (Severe damages)) | 5 (0-5 (Death)) | 5 (0-5 (Death)) | 5 (0-5 (Death)) | 4 (6-10 (Severe damages)) | Crop injury Rice (Oryza sativa) [21]: 0 (91-100 (No damages)); Crop injury Corn (Zea maize) [22]: 0 (91-100 (No damages)); Crop injury Soybean (Glycine max) [23]: 0 (91-100 (No damages)); Crop injury Cotton (Gossypium indicum) [24]: 0 (91-100 (No damages)); Crop injury Rice (Oryza sativa) [25]: 0 (91-100 (No damages))
3 | COc1cc(OC)nc(Oc2cccnc2C2OCCO2)n1 [Compound No. 6] | 5 (0-5 (Death)) | 4 (6-10 (Severe damages)) | 3 (11-40 (Medium damages)) | 4 (6-10 (Severe damages)) | 4 (6-10 (Severe damages)) | 3 (11-40 (Medium damages)) | 4 (6-10 (Severe damages)) | 5 (0-5 (Death)) | 3 (11-40 (Medium damages)) | 5 (0-5 (Death)) | 5 (0-5 (Death)) | 5 (0-5 (Death)) | 5 (0-5 (Death)) | 5 (0-5 (Death)) | 4 (6-10 (Severe damages)) | 4 (6-10 (Severe damages)) | 5 (0-5 (Death)) | 5 (0-5 (Death)) | 4 (6-10 (Severe damages)) | 4 (6-10 (Severe damages)) | Crop injury Rice (Oryza sativa) [21]: 0 (91-100 (No damages)); Crop injury Corn (Zea maize) [22]: 0 (91-100 (No damages)); Crop injury Soybean (Glycine max) [23]: 0 (91-100 (No damages)); Crop injury Cotton (Gossypium indicum) [24]: 0 (91-100 (No damages)); Crop injury Rice (Oryza sativa) [25]: 0 (91-100 (No damages))
4 | CCOC(=O)c1ncccc1Oc1nc(OC)cc(OC)n1 [A, reference compound] | 5 (0-5 (Death)) | 5 (0-5 (Death)) | 4 (6-10 (Severe damages)) | 5 (0-5 (Death)) | 4 (6-10 (Severe damages)) | 3 (11-40 (Medium damages)) | 4 (6-10 (Severe damages)) | 4 (6-10 (Severe damages)) | 4 (6-10 (Severe damages)) | 5 (0-5 (Death)) | 5 (0-5 (Death)) | 4 (6-10 (Severe damages)) | 5 (0-5 (Death)) | 5 (0-5 (Death)) | 5 (0-5 (Death)) | 4 (6-10 (Severe damages)) | 5 (0-5 (Death)) | 4 (6-10 (Severe damages)) | 5 (0-5 (Death)) | 4 (6-10 (Severe damages)) | Crop injury Rice (Oryza sativa) [21]: 5 (0-5 (Death)); Crop injury Corn (Zea maize) [22]: 5 (0-5 (Death)); Crop injury Soybean (Glycine max) [23]: 5 (0-5 (Death)); Crop injury Cotton (Gossypium indicum) [24]: 5 (0-5 (Death)); Crop injury Rice (Oryza sativa) [25]: 5 (0-5 (Death))
